The values below are quoted from earlier work in the CATMoS acute toxicity set (Mansouri et al. 2021).

Usually LD50 stands for the dose expected to kill half of the subjects tested.

Where “and” joins values, the source holds several entries; their conditions need not be identical. Identical values can stand only once.

The series is described as follows: rat acute oral toxicity. The following applies: in vivo.
With `NC(=O)c1cc(C(=O)CBr)ccc1O`, the median lethal dose (LD50) is 800 mg/kg.

`CCOc1ccccc1C(N)=O`: the 50% lethal dose (LD50) is 2200 mg/kg. Regarding `CCC(C)c1ccc(Cl)c(OC(=O)NC)c1` (stereo not given), the LD50 was 50 mg/kg. Take `N#CC(C#N)=C1SCS1`: the LD50 is 75 mg/kg. Consider `Cc1cccc(CN2CCN(C(c3ccccc3)c3ccc(Cl)cc3)CC2)c1` (stereo not given), for which the LD50 is 1750 mg/kg. As to `CN=C(O)O/N=C1\SCOC1C(C)C` (stereo not given), the LD50 is 16 mg/kg. Consider `CCCCCCCC/C=C\CCCCCCCC(=O)NCC[N+]1(C)CCN=C1CCCCCCC/C=C\CCCCCCCC` (stereo not given), for which the median lethal dose (LD50) was 24400 mg/kg.

`C=CCc1cc(OC)c2c(c1)OCO2`: the 50% lethal dose (LD50) was 4260 mg/kg.

For the compound `CN1CCC(OC(=O)C2CCc3cc(C4CCCCC4)ccc32)CC1` (stereo not given), the LD50 was 572 mg/kg. With `[SiH3]CCCCC(Cl)(Cl)Cl`, the 50% lethal dose (LD50) was 2340 mg/kg. Take `CCc1ccccc1N`: the LD50 is 1260 mg/kg.

Turning to `CCOC(C)C#N` (stereo not given), the 50% lethal dose (LD50) was 2860 mg/kg. Regarding `Clc1cc(Cl)c2nsnc2c1Cl`, the 50% lethal dose (LD50) was 1620 mg/kg.

In the case of `O=C(COc1ccc(Cl)cc1Cl)OCC=CCCl`, the 50% lethal dose (LD50) was 547 mg/kg. For `CCOCC(=O)Nc1ccc(C(=O)c2ccccc2)cc1C`, the median lethal dose (LD50) is 2280 mg/kg. For the compound `CC(C)(O)C#CC(C)(C)O`, the 50% lethal dose (LD50) was 9000 mg/kg. Consider `Nc1ccc2ccc3cccc4ccc1c2c34`, for which the LD50 is 1070 mg/kg. Turning to `COC(C)CC(=O)O` (stereo not given), the LD50 was 3030 mg/kg. Turning to `COc1ccc(C=CC(=O)O)cc1O`, the LD50 was 7900 mg/kg.

With `COc1ccc(O)c(C(N)=O)c1`, the LD50 was 1900 mg/kg.

On to `CCC(C)(O)Cc1ccccc1` (stereo not given), for which the LD50 was 4000 mg/kg. In the case of `C=C(C)C(=O)OCCOCCOCCOC(=O)C(=C)C`, the LD50 was 10800 mg/kg. In the case of `Cn1cc(C(O)=Nc2cccc3c2C2CCC3C2=C(Cl)Cl)c(C(F)F)n1` (stereo not given), the 50% lethal dose (LD50) is 55 mg/kg. For the compound `Nc1c(Br)cc([N+](=O)[O-])cc1[N+](=O)[O-]`, the 50% lethal dose (LD50) was 4100 mg/kg. Take `CC(C)C(Br)C(=O)OC(C)C(Cl)(Cl)Cl` (stereo not given): the LD50 is 1200 mg/kg. Turning to `NNc1ccc(N(CCO)CCO)nn1`, the median lethal dose (LD50) is 1800 mg/kg. As to `CN=C(O)O/N=C1/SC(C)OC1C` (stereo not given), the LD50 is 4.5 mg/kg.

As for `O=[N+]([O-])c1ccc(Oc2ccc(C(F)(F)F)cc2Cl)cc1`, the LD50 was 1000 mg/kg. On to `O=S1OCC2C(CO1)C1(Cl)C(Cl)=C(Cl)C2(Cl)C1(Cl)Cl` (stereo not given), for which the LD50 was 240 mg/kg. In the case of `CN(C)CCN(C)n1cc(-c2ccccc2)c2ccccc21`, the median lethal dose (LD50) is 1160 mg/kg.

Turning to `CC(C)=CC=O`, the LD50 was 690 mg/kg. For the compound `CCc1c(C)[nH]c2c1C(=O)C1CN(C)CCC1C2` (stereo not given), the LD50 is 220 mg/kg. Consider `COc1ccc2c(c1OC)C13CCN(C)C(C2)C1(O)CCC(O)C3` (stereo not given), for which the LD50 is 339 mg/kg. `O=c1ccn(C2OC(COP(=O)(O)O)C(O)C2O)c(=O)[nH]1` (stereo not given): the LD50 was 12000 mg/kg. On to `CC(C)Cc1ccc(C(C)C(=O)OCCN2CCN(c3cccc(Cl)c3)CC2)cc1` (stereo not given), for which the LD50 was 3350 mg/kg. As for `CCN(C)CCC(CC=C(C)C)(C(N)=O)c1cccc2ccccc12` (stereo not given), the median lethal dose (LD50) was 71 mg/kg.

As for `CC(=O)OC(C)OC(=O)C(C)c1ccc(-c2ccccc2)c(F)c1` (stereo not given), the 50% lethal dose (LD50) is 66 mg/kg. On to `O=C(O)CCCCCCCCCl`, for which the LD50 is 3000 mg/kg. Regarding `FC(F)(F)c1nc2c(C(F)(F)F)cc(Cl)cc2[nH]1`, the LD50 is 1.66 mg/kg. `CCCCCCOC(=O)c1ccccc1`: the LD50 is 12300 mg/kg. Consider `CCOC(C1=NCC(C)(C)CN1)c1ccccc1` (stereo not given), for which the LD50 was 875 mg/kg.

For the compound `CCc1nn(-c2ccc(F)cc2)c2c(=O)[nH]ccc12`, the LD50 was 375 mg/kg. Regarding `COC(C)CC(CC(OC)OC)OC` (stereo not given), the median lethal dose (LD50) was 4090 mg/kg. Regarding `CCCCCCOCCOC(=O)CCC(=O)OCCOCCCCCC`, the LD50 was 4280 mg/kg. On to `C=CCSC1=NCCS1`, for which the LD50 is 110 mg/kg. As to `CCCCCCOCCCCCC`, the 50% lethal dose (LD50) was 30900 mg/kg. As for `CC(C)CCON=O`, the LD50 is 505 mg/kg. Turning to `C=C(C)C(=O)CC`, the LD50 was 419 mg/kg. As for `CCC(C)=CCCC(C)=CC#N`, the LD50 was 2600 mg/kg.

For `CC(=O)Nc1ccncc1`, the 50% lethal dose (LD50) is 446 mg/kg.

With `CCOC(N)=C1Sc2ccccc2C1=O`, the LD50 was 4000 mg/kg.

For `FC(F)(F)c1nc2c(Cl)c(Cl)c(Cl)c(Br)c2[nH]1`, the median lethal dose (LD50) is 4.12 mg/kg. For the compound `CCOC1Oc2ccc(OS(C)(=O)=O)cc2C1(C)C` (stereo not given), the 50% lethal dose (LD50) was 1130 mg/kg. On to `CCCCCCCCCCOc1c(OC)cc(C(N)=O)cc1OC`, for which the LD50 was 1650 mg/kg. As to `NC(Cc1ccc(N(CCCl)CCCl)cc1)C(=O)O` (stereo not given), the 50% lethal dose (LD50) is 52 mg/kg and 105 mg/kg. As for `CCOC(=O)CCC1(CCC(=O)OCC)c2ccccc2-c2ccccc21`, the LD50 is 6170 mg/kg. In the case of `CNC1(c2ccccc2Cl)CCCCC1=O` (stereo not given), the LD50 was 447 mg/kg.

For `O=C(O)CNCP(=O)(O)O`, the LD50 is 4870 mg/kg and 10500 mg/kg. `O=C(O)C(=O)C(O)=C(O)O`: the LD50 is 6000 mg/kg. Consider `CC(=O)c1cccc(Oc2ccccc2)c1`, for which the LD50 was 4160 mg/kg.
